According to patent US10226509B2, “Lymphangiogenesis inhibitors for cancer and for graft survival” (TUFTS UNIVERSITY, priority 2014, dated 2019):

Assays:
[1] = system: VEGFR-3; test: Affinity precipitation assay, VEGFR-3; type: binding, human; conditions: galectin-conjugated agarose beads, LEC lysates
Experimental: (§1) Five mg of plant lectins (Vector Labs) and galectins were conjugated to 330 mg of Pierce® NHS-activated agarose dry resin in accordance with the manufacturer's instructions (Thermo Scientific). Primary LECs (Lonza) were lysed in Triton lysis buffer (20 mM Tris-HCl, pH 7.4; 150 mM NaCl; 0.5% Triton X-100 with protease inhibitor cocktail). LEC lysates (250 μg in 500 μL lysis buffer supplemented with 10 mM MgCl2) were incubated with 40 μL (50% slurry) of agarose-conjugated lectins (4° C., overnight). Beads were pelleted by centrifugation at 3000 rpm for 1 min. Non-specific binding proteins were removed by washing the beads with Triton lysis buffer once and PBS twice. Supernatants were discarded; bound proteins were eluted by boiling the beads with 20 μL of 2× Laemmli sample buffer for 7 min, and examined by western blotting.
Next, a series of examples were performed to determine whether VEGF-C-induced lymphangiogenesis is dependent on Gal-8. To determine whether VEGFR-3 is a Gal-8-binding protein, LEC lysates were incubated with Gal-8-conjugated agarose beads in the presence or absence of 0.1 M of lactose (an inhibiting sugar) or sucrose (a non-inhibiting sugar). Bound proteins were examined and were compared to total cell lysates (input) by western blot using anti-VEGFR-3 antibody. Three forms of VEGFR-3 (125 kDa, 175 kDa and 195 kDa) were detected in total cell lysates (FIG. 5A) (Bando, H., et al. 2004. Int J Cancer 111:184-191.). […] Having shown that Gal-8 binds to VEGFR-3 in LECs and that the carbohydrate-binding activity of Gal-8 is required for the synergistic effect of Gal-8 on VEGF-C-induced LEC sprouting, it was of interest to determine whether VEGFR-3 bears 3′-sialylated glycans.

[2] = target: T1, PDPN (Homo sapiens, UniProt Q86YL7); test: Affinity precipitation assay, PDPN; type: binding; conditions: galectin-conjugated agarose beads, LEC lysates
T1 construct: Within the whole cell lysate, an anti-PDPN-reactive 43-kDa component was detected; host or cells: primary lymphatic endothelial cells (LECs)
T1 sequence (Q86YL7 23-162): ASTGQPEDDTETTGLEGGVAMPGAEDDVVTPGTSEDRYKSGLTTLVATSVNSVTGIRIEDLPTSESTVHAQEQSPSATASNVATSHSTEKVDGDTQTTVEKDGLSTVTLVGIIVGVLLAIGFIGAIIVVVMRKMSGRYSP
Experimental: as §1
To determine whether PDPN binds to Gal-8 in a carbohydrate-dependent manner, LEC lysates were incubated with Gal-8-conjugated to agarose beads in the presence or absence of 0.1 M of lactose (an inhibiting sugar) or sucrose (a non-inhibiting sugar). Bound proteins were examined with total cell lysates (input) by western blot using an anti-PDPN antibody. To determine specificity of PDPN binding to Gal-8, LEC lysates were also incubated with agarose beads conjugated to Gal-1, Gal-3 and Gal-7. Within the whole cell lysate, an anti-PDPN-reactive 43-kDa component was detected (FIG. 7A).

[3] = system: PDPN; test: Cell surface expression of PDPN by flow cytometry; type: cell-based, human; conditions: 30 min post-treatment; Gal-8 0.2 μM
Experimental: (§2) Primary LECs were serum-starved overnight in basal EBM-2 medium. The cells were incubated with or without VEGF-C (50 ng/ml, PeproTech) or Gal-8 (0.2 μM) in serum-free EBM-2 medium for 10 and 30 min. At the end of the incubation period, cells were lifted with StemPro® Accutase® cell dissociation reagent (Invitrogen), washed with PBS and fixed with 4% paraformaldehyde/PBS on ice for 10 min, and were then stained using rat anti-human PDPN (1:500, BioLegend) and mouse anti-human VEGFR-3 (clone 9D9F9) (1:100, BioLegend) primary antibodies in cell staining buffer (BioLegend, 45 min on ice) and Alexa Fluor® 488 donkey anti-rat and Alexa Fluor® 647 anti-mouse secondary antibodies (1:1000, Invitrogen, 30 min on ice). For negative control, the primary antibodies were omitted. The stained cells were fixed with 2% paraformaldehyde/PBS, analyzed with BD FACSCalibur, and the mean fluorescence intensity of VEGFR-3 and PDPN were quantified with the FlowJo software (version 9.5.2).

[4] = system: VEGFR-3; test: Cell surface expression of VEGFR-3 by flow cytometry; type: cell-based, human; conditions: Gal-8 0.2 μM or VEGF-C 50 ng/ml
Experimental: as §2

[5] = system: LEC plasma membrane; test: Immunocytochemistry / confocal microscopy of receptor clustering on LECs; type: cell-based, human
Experimental: […] Cells were blocked with Image-iT® signal enhancer (30 min, 25° C., Invitrogen) and incubated with primary antibodies (rat anti-human PDPN, 1:300, BioLegend; mouse anti-human VEGFR-3, 9D9F9, 1:100, BioLegend; rabbit anti-Gal-8, H-80, 1:100, Santa Cruz Biotechnology) in 2% BSA/PBS at 4° C. overnight. The cells were then washed with 2% BSA/PBS three times and incubated with appropriate secondary antibodies (Alexa Fluor® 488 anti-mouse, 1:200, Invitrogen; Alexa Fluor® 568 anti-rabbit, 1:200, Invitrogen; Alexa Fluor 647® anti-rat, 1:300, Jackson ImmunoResearch) at 25° C. for 1 hr. Cells were washed with PBS, slides were mounted with ProLong Gold antifade reagent with DAPI (Invitrogen) and were examined with the Leica TCS SPE imaging system (Leica).
Since galectin-glycan lattices segregate the cell surface receptors into discrete domains to initiate cell signaling (Lajoie, P., et al. 2009. J Cell Biol 185:381-385), assays were performed to determine whether Gal-8 clusters PDPN and VEGFR-3 on LEC plasma membrane. LECs were treated with Gal-8 for 15 minutes, fixed, stained with anti-PDPN, VEGFR-3 and Gal-8 antibodies, and examined by confocal microscopy. In control cells, which were incubated with buffer only, both PDPN and VEGFR-3 were homogenously distributed all over the LEC and in cell borders; endogenous Gal-8 was mainly distributed in cytosol (FIG. 9A-FIG. 9D). […]

- binding of PDPN (in words) [2]: binds
Substance: Gal-8: recombinant galectin-8, tandem-repeat type galectin with two different CRDs
- binding to VEGFR-3 (in words) [1]: interacted with 125 and 195 kDa VEGFR-3 and not with 175 kDa VEGFR-3
- increase of cell surface expression of PDPN [3]: about 30%
- decrease of cell surface expression of VEGFR-3 [4]: about 10%
- distribution of PDPN and VEGFR-3 on LECs ([5]; Gal-8 for 15 minutes): caused dramatic redistribution and clustering of PDPN and VEGFR-3 on LEC plasma membrane
- distribution of PDPN and integrin β1 on LECs ([5]; galectin-8 for 15 minutes, no permeabilization): caused dramatic redistribution and clustering of PDPN and integrin β1 on LEC plasma membrane
